For series [1] the following is noted: in vivo; cited from earlier work.
The test system of series [2] is younger subject two. As to the kind of experiment: Trial: small amounts of amantadine with creatine, with or without a PDE5 inhibitor ED drug. It counts as in vivo, human. The following applies: for Results in conjugal sexual activity: ED drugs in low doses over the past four years; for Effectiveness of small dose of the PDE5 inhibitor ED drug alone: VIAGRA about 12.5 mg or LEVITRA about 2.5 mg, normally. How it is done:
In a trial, the younger subject two ingested small amounts of amantadine along with about 88 mg of creatine. The small amounts of amantadine were measured by opening a capsule of amantadine and pouring out small amounts. Ten individual administrations used less than one 100 mg capsule of amantadine. Thus, the dose of amantadine was approximately 5 mg to approximately 10 mg.
The subject noted a body weight that varied little from about 78 kg over the past twenty plus years. The subject noted no use of blood pressure or other prescribed medications on a regular basis.

A further series deals with younger subject one. As to the kind of experiment: Observation of the younger subject on lycopene-containing foods. It counts as in vivo, human. The following applies: on occasion, for one day at a time. The source says:
Other exemplary compositions may include lycopene. […] Lycopene is present in tomato products while other foods of interest include certain beans and blue berries. An exemplary method includes administering such a composition. For example, a composition that includes creatine and lycopene may be administered to a subject to treat a urologic disorder. An exemplary method includes administering creatine and lyocpene to treat a urologic disorder.

A further series has as its system patients. Particulars: in vivo; cited from earlier work.
Series [3] concerns younger subject two. As to the kind of experiment: Trial: occasional amantadine for flu prophylaxis, nocturnal urinary symptoms. It counts as in vivo, human. Particulars: occasional administration of about 100 mg. The protocol:
A trial involving the younger subject two involved occasional administration of about 100 mg of amantadine for flu prophylaxis.

Series [4] concerns varsity football and track athletes. The following applies: 3 g per day without prior loading; cited from earlier work.
Series [5] has as its system subject one with nocturia and diagnosed moderate prostate enlargement. As to the kind of experiment: Trial: single dose of creatine monohydrate powder in solution prior to sleep. The format is in vivo, human. The following applies: person two. How it is done:
A trial provided creatine monohydrate as a powder (about 100% creatine monohydrate) and administered a single dose (approximately 0.1 to 0.2 g) of the creatine monohydrate powder in a solution (about 0.09 to 0.17 g creatine) approximately 0.5 to 3 hours prior to sleep. Urinary flow-related symptoms were reduced for the immediate sleep period and for sleep periods during the following 48 hours.
The subject weighed approximately 80 kg (about 175 lbs). Thus, the dosage was about 0.9 mg of creatine per kg of body weight. Range may vary by individual and prior consumption of a creatine compound. A general range for CSUE may be from about 0.4 mg creatine monohydrate to about 4.0 mg creatine monohydrate per kg body weight per day (e.g., about 32 mg to about 320 mg per day for a subject weighing about 80 kg). As already mentioned, the various trials used creatine monohydrate powder (about 100%) in solution. Thus, in terms of creatine content, the general range for CSUE may be from about 0.35 mg creatine per kg body weight per day (e.g., about 0.4*(3.124.4/5) mg) to about 3.5 mg creatine per kg body weight per day (e.g., 4.0*(3.124.4/5) mg). While dose may vary from patient to patient, the dose is typically less than the dose for CSR.

The subject of series [6] is two male subjects with urinary symptoms. As to the kind of experiment: Additional trials: creatine monohydrate in solution, loading phase and maintenance phase. The format is in vivo, human. How it is done: […] […] […] The post-loading phase is referred to herein as a maintenance phase. The dose may vary during the maintenance phase; however, it is generally at least 50% less than the dose used in a loading phase.
In these trials, urinary flow-related symptoms were reduced.
However, in various trials, a delay in relief was experienced that corresponded to the dose size where a larger than required dose would actually delay relief (e.g. beyond 24 hours to as much as 72 hours). […] Such trials indicate that a dosage range exists for relief of symptoms and for timing of the relief.

Setting [7] is: single dose approx 0.1 to 0.2 g in solution prior to sleep.

With `C[C@]12CC[C@H](OS(=O)(=O)O)CC1=CC[C@@H]1[C@@H]2CC[C@]2(C)C(=O)CC[C@@H]12` [DHEA-S, DHEA-sulfate], in series [1], the “Levels of testosterone and androstenedione” value was “increased levels”.

Regarding `CCCc1nc(C)c2c(=O)nc(-c3cc(S(=O)(=O)N4CCN(CC)CC4)ccc3OCC)[nH]n12` [LEVITRA®, 4-[2-ethoxy-5-(4-ethylpiperazin-1-yl)sulfonyl-phenyl]-9-methyl-7-propyl-3,5,6,8-tetrazabicyclo[4.3.0]nona-3,7,9-trien-2-one], in the series on younger subject two [2], the “Results in conjugal sexual activity” value is “good results” and the “Effectiveness of small dose of the PDE5 inhibitor ED drug alone” value was “somewhat marginally effective”.

As for `CC(C)=CCC/C(C)=C/C=C/C(C)=C/C=C/C(C)=C/C=C/C=C(C)/C=C/C=C(C)/C=C/C=C(\C)CCC=C(C)C` [Lycopene, lycopene], in the series with younger subject one, the “Nocturnal urine stream slowing” value is “a lack of nocturnal urine stream slowing”.

Take `CC12CC3CC(C)(C1)CC(N)(C3)C2` [Memantine, 1-amino-3,5-dimethyl-adamantane]: the Tolerability result in the series with patients is “generally well-tolerated”.

Turning to `CCCc1nn(C)c2c(=O)[nH]c(-c3cc(S(=O)(=O)N4CCN(C)CC4)ccc3OCC)nc12.O=C(O)CC(O)(CC(=O)O)C(=O)O` [VIAGRA®, 1-[4-ethoxy-3-(6,7-dihydro-1-methyl-7-oxo-3-propyl-1H-pyrazolo[4,3-d]pyrimidin-5-yl)phenylsulfonyl]-4-methylpiperazine citrate], in the series on younger subject two [2], the “Results in conjugal sexual activity” value is on record as “good results” and the “Effectiveness of small dose of the PDE5 inhibitor ED drug alone” value is recorded as “somewhat marginally effective”.

Take `NC12CC3CC(CC(C3)C1)C2` [amantadine, adamantan-1-amine]: the “Effect compared with DHEA taken to enhance libido (readiness for and enjoyment of orgasm)” value in the series with younger subject two [2] (about 5 mg of amantadine) is “similarly beneficial but distinct effect”. In addition, the “Effect relative to that of the PDE5 inhibitor ED drugs” value in the series with younger subject two [2] (subject's observation) is “additive”. Also, the Nocturnal urinary symptoms result in the series on younger subject two [3] is “reduction in nocturnal urinary symptoms”.

On to `CN(CC(=O)O)C(=N)N.O` [creatine monohydrate], for which the Ergogenic effect entry in series [4] was “did not observe ergogenic effect”. Also, the Urinary flow-related symptoms result in series [5] (single dose approx 0.1 to 0.2 g in solution 0.5 to 3 hours prior to sleep, immediate sleep period and sleep periods of following 48 hours) is “reduced”. Further, in series [5] (setting [7]), the Nocturnal erections entry is “increase in nocturnal erections” and the “Testicular blood flow as evidenced by palpable scrotal content enlargement” value is recorded as “increase in testicular blood flow”. Also, the “Symptoms (urinary)” value in series [6] (both subjects, loading phase 0.1 to 1.0 g, then maintenance about 50 to 150 mg every other day) is “symptoms were relieved”. Further, the “Initiation of urine stream at night” value in series [6] (doses larger than about 0.25 g in the maintenance phase, younger subject) is “more difficult until 24 hours to 48 hours later”. For the same compound, in series [6] (doses of greater than 1 g after the loading phase, both subjects), the Urinary symptom reduction result is on record as “less urinary symptom reduction”.

(Values after patent US8513306B2, “Enhancement of urogenital function” (priority 2005, dated 2013).)
